From patent US20200009168A1, “MICROBIOME REGULATORS AND RELATED USES THEREOF” (KALEIDO BIOSCIENCES, INC., priority 2015, published 2020)

Assays:
[1] = tested on: Bacteroides cellulosilyticus DSM 14838 "BCE.71"; assay: Sugar-supported growth of commensal bacteria, BCE.71; type: cell-based; conditions: 0.5% w/v sugar, 37° C., 18-24 hours, anaerobic; OD600 divided by OD600 with 0.5% w/v dextrose
Method: (§1) An in vitro assay was performed to assess the ability of various bacterial strains, including commensals of the gastrointestinal tract, to utilize different sugars as growth substrates. This assay was designed to assess the ability of selected natural monosaccharides, disaccharides and synthetic sugars to promote the growth of microbiota associated with a healthy state. Bacterial strains were handled at all steps in an anaerobic chamber (AS-580, Anaerobe Systems) featuring a palladium catalyst. The chamber was initially made anaerobic by purging with an anaerobic gas mixture of 5% hydrogen, 5% carbon dioxide and 90% nitrogen and subsequently maintained in an anaerobic state using this same anaerobic gas mixture. Anaerobicity of the chamber was confirmed daily using Oxoid anaerobic indicator strips that change color in the presence of oxygen. All culture media, assay plates, other reagents and plastic consumables were pre-reduced in the anaerobic chamber for 24-48 hours prior to contact with bacteria. Sugars were prepared at 5% w/v in water, filter-sterilized and added to Costar 3370 assay plates for a final concentration of 0.5% w/v in the assay, with each microbiome regulator assayed in two non-adjacent wells and dextrose and water supplied as positive and negative controls.
(§2) Bacterial isolates were obtained from the American Type Culture Collection (ATCC) and Leibniz Institute DSMZ-German Institute of Microorganisms and Cell Cultures (DSMZ). Cultures of the Bacteroidetes Bacteroides caccae ATCC 43185 “BCA.26”, Bacteroides thetaiotaomicron ATCC 29741 “BTH.8”, Bacteroides cellulosilyticus DSM 14838 “BCE.71”, Parabacteroides distasonis ATCC 8503 “PDI.6” and Prevotella copri DSM 18205 “PCO.72”; the Clostridiales Clostridium scindens ATCC 35704 “CSC.32”, Dorea formicigenerans ATCC 27755 “DFO.36” and Ruminococcus obeum ATCC 29714 “ROB.74”; and the Bifidobacteria Bifidobacterium longum ATCC 15707 “BLO.16” and Bifidobacterium longum DSM 20088 “BLO.83”, were grown anaerobically in Chopped Meat Glucose broth (CMG, Anaerobe Systems), a pre-reduced enriched medium including lean ground beef, enzymatic digest of casein, yeast extract, potassium phosphate, dextrose, cysteine, hemin and Vitamin K1, for 18-48 hours at 37° C. Inocula were prepared by determining the optical density of each culture at […] (OD600) in a Costar 3370 polystyrene 96-well flat-bottom assay plate using a Biotek Synergy 2 plate reader with Gen5 2.0 All-In-One Microplate Reader Software according to manufacturer's protocol, and diluting the cells to OD600 0.01 final in defined and semi-defined media that were prepared without sugars. D. formicigenerans, P. distasonis and B. longum isolates were tested in 900 mg/L sodium chloride, 26 mg/L calcium chloride dihydrate, 20 mg/L magnesium chloride hexahydrate, 10 mg/L manganese chloride tetrahydrate, 40 mg/L ammonium sulfate, 4 mg/L iron sulfate heptahydrate, 1 mg/L cobalt chloride hexahydrate, 300 mg/L potassium phosphate dibasic, 1.5 g/L sodium phosphate dibasic, 5 g/L sodium bicarbonate, 0.125 mg/L biotin, 1 mg/L pyridoxine, […], 75 mg/L histidine, 75 mg/L glycine, 75 mg/L tryptophan, 150 mg/L arginine, 150 mg/L methionine, 150 mg/L threonine, 225 mg/L valine, 225 mg/L isoleucine, 300 mg/L leucine, 400 mg/L cysteine, and 450 mg/L proline (Theriot C M et al. Nat Commun. 2014; 5:3114), supplemented with 0-3.5% (v/v) CMG. B. thetaiotaomicron, B. caccae and B. cellulosyliticus were tested in 100 mM potassium phosphate buffer (pH 7.2), 15 mM sodium chloride, 8.5 mM ammonium sulfate, 4 mM L-cysteine, 1.9 μM hematin, 200 μM L-histidine, 100 μM magnesium chloride, 1.4 μM iron sulfate heptahydrate, 50 μM calcium chloride, 1 μg/mL vitamin K3 and 5 ng/mL vitamin B12 (Martens E C et al. Cell Host & Microbe 2008; 4, 447-457). […]

[2] = tested on: Bacteroides caccae ATCC 43185 "BCA.26"; assay: Sugar-supported growth of commensal bacteria, BCA.26; type: cell-based; conditions: 0.5% w/v sugar, 37° C., 18-24 hours, anaerobic; OD600 divided by OD600 with 0.5% w/v dextrose
Method: as §1, §2

[3] = tested on: Bifidobacterium longum DSM 20088 "BLO.83"; assay: Sugar-supported growth of commensal bacteria, BLO.83; type: cell-based; conditions: 0.5% w/v sugar, 37° C., 18-24 hours, anaerobic; OD600 divided by OD600 with 0.5% w/v dextrose
Method: as §1
Bacterial isolates were obtained from the American Type Culture Collection (ATCC) and Leibniz Institute DSMZ-German Institute of Microorganisms and Cell Cultures (DSMZ). Cultures of the Bacteroidetes Bacteroides caccae ATCC 43185 “BCA.26”, Bacteroides thetaiotaomicron ATCC 29741 “BTH.8”, Bacteroides cellulosilyticus DSM 14838 “BCE.71”, Parabacteroides distasonis ATCC 8503 “PDI.6” and Prevotella copri DSM 18205 “PCO.72”; the Clostridiales Clostridium scindens ATCC 35704 “CSC.32”, Dorea formicigenerans ATCC 27755 “DFO.36” and Ruminococcus obeum ATCC 29714 “ROB.74”; and the Bifidobacteria Bifidobacterium longum ATCC 15707 “BLO.16” and Bifidobacterium longum DSM 20088 “BLO.83”, were grown anaerobically in Chopped Meat Glucose broth (CMG, Anaerobe Systems), a pre-reduced enriched medium including lean ground beef, enzymatic digest of casein, yeast extract, potassium phosphate, dextrose, cysteine, hemin and Vitamin K1, for 18-48 hours at 37° C. Inocula were prepared by determining the optical density of each culture at […] (OD600) in a Costar 3370 polystyrene 96-well flat-bottom assay plate using a Biotek Synergy 2 plate reader with Gen5 2.0 All-In-One Microplate Reader Software according to manufacturer's protocol, and diluting the cells to OD600 0.01 final in defined and semi-defined media that were prepared without sugars. […]

[4] = tested on: Parabacteroides distasonis ATCC 8503 "PDI.6"; assay: Sugar-supported growth of commensal bacteria, PDI.6; type: cell-based; conditions: 0.5% w/v sugar, 37° C., 18-24 hours, anaerobic; OD600 divided by OD600 with 0.5% w/v dextrose
Method: as §1, §2

[5] = tested on: Ruminococcus obeum ATCC 29714 "ROB.74"; assay: Sugar-supported growth of commensal bacteria, ROB.74; type: cell-based; conditions: 0.5% w/v sugar, 37° C., 18-24 hours, anaerobic; OD600 divided by OD600 with 0.5% w/v dextrose
Method: as §1, §2

[6] = tested on: Bacteroides thetaiotaomicron ATCC 29741 "BTH.8"; assay: Sugar-supported growth of commensal bacteria, BTH.8; type: cell-based; conditions: 0.5% w/v sugar, 37° C., 18-24 hours, anaerobic; OD600 divided by OD600 with 0.5% w/v dextrose
Method: as §1, §2

[7] = tested on: Clostridium scindens ATCC 35704 "CSC.32"; assay: Sugar-supported growth of commensal bacteria, CSC.32; type: cell-based; conditions: 0.5% w/v sugar, 37° C., 18-24 hours, anaerobic; OD600 divided by OD600 with 0.5% w/v dextrose
Method: as §1, §2

[8] = tested on: Dorea formicigenerans ATCC 27755 "DFO.36"; assay: Sugar-supported growth of commensal bacteria, DFO.36; type: cell-based; conditions: 0.5% w/v sugar, 37° C., 18-24 hours, anaerobic; OD600 divided by OD600 with 0.5% w/v dextrose
Method: as §1, §2

[9] = tested on: Prevotella copri DSM 18205 "PCO.72"; assay: Sugar-supported growth of commensal bacteria, PCO.72; type: cell-based; conditions: 0.5% w/v sugar, 37° C., 18-24 hours, anaerobic; OD600 divided by OD600 with 0.5% w/v dextrose
Method: as §1, §2

[10] = tested on: panel of 10 commensals; assay: Sugar-supported growth, whole panel of 10 commensals; type: cell-based; conditions: 0.5% w/v sugar, summary in words
Method: as §1, §2

[11] = tested on: Bifidobacterium longum ATCC 15707 "BLO.16"; assay: Sugar-supported growth of commensal bacteria, BLO.16; type: cell-based; conditions: 0.5% w/v sugar, 37° C., 18-24 hours, anaerobic; OD600 divided by OD600 with 0.5% w/v dextrose
Method: as §1, §2

[12] = studies by McCance et al (J Biol Chem (1930) 24:795-804); cited from earlier work
[13] = tested on: colonic regulatory T cells; conditions: in mice or in vitro; cited from earlier work

SMILES	Average Normalized Growth (NGV), BCE.71 [1]	Average Normalized Growth (NGV), BCA.26 [2]	Average Normalized Growth (NGV), BLO.83 [3]	Average Normalized Growth (NGV), PDI.6 [4]	Average Normalized Growth (NGV), ROB.74 [5]	Average Normalized Growth (NGV), BTH.8 [6]	Average Normalized Growth (NGV), CSC.32 [7]	Average Normalized Growth (NGV), DFO.36 [8]	Average Normalized Growth (NGV), PCO.72 [9]	taxa or strains of the commensal panel whose growth was supported [10]	Average Normalized Growth (NGV), BLO.16 [11]	absorption by the gastrointestinal tract [12]	expression of Foxp3, a T cell regulatory factor [13]	expression of IL-10, an anti-inflammatory cytokine [13]
O=C(CO)[C@@H](O)[C@H](O)[C@H](O)CO [D-fructose]	+++ (>1)	++ (0.6-1)	+++ (>1)	+++ (>1)	++ (0.6-1)	++ (0.6-1)	+++ (>1)	+++ (>1)	++ (0.6-1)	supported some commensals from the taxa Bacteroidetes, Firmicutes, including Lachnospiraceae, and Bifidobacteria	+++ (>1)	–	–	–
O=C[C@H](O)[C@@H](O)[C@@H](O)[C@H](O)CO [D-galactose]	+++ (>1)	++ (0.6-1)	+++ (>1)	+++ (>1)	+ (0.2-0.6)	+++ (>1)	++ (0.6-1)	+ (0.2-0.6)	+++ (>1)	supported some commensals from the taxa Bacteroidetes, Firmicutes, including Lachnospiraceae, and Bifidobacteria	− (<0.2)	readily absorbed	–	–
O=C[C@H](O)[C@@H](O)[C@@H](O)CO [L-arabinose]	++ (0.6-1)	+++ (>1)	− (<0.2)	− (<0.2)	–	+++ (>1)	− (<0.2)	+++ (>1)	++ (0.6-1)	supported some commensals from the taxa Bacteroidetes, Firmicutes, including Lachnospiraceae, and Bifidobacteria	++ (0.6-1)	–	–	–
C[C@H](O)[C@H](O)[C@@H](O)[C@@H](O)C=O [L-rhamnose]	–	− (<0.2)	–	− (<0.2)	–	+ (0.2-0.6)	− (<0.2)	− (<0.2)	+ (0.2-0.6)	–	− (<0.2)	are not	–	–
O=C[C@@H](O)[C@H](O)[C@H](O)CO [arabinose]	–	–	–	–	–	–	–	–	–	–	–	are not	–	–
OC[C@H]1O[C@@H](O[C@H]2[C@H](O)[C@@H](O)C(O)O[C@@H]2CO)[C@H](O)[C@@H](O)[C@H]1O (stereo partly shown) [lactose]	+++ (>1)	+++ (>1)	+++ (>1)	+++ (>1)	++ (0.6-1)	+++ (>1)	+++ (>1)	+++ (>1)	+++ (>1)	supported some commensals from the taxa Bacteroidetes, Firmicutes, including Lachnospiraceae, and Bifidobacteria	++ (0.6-1)	–	–	–
CCC(=O)O [propionate, propionic acid]	–	–	–	–	–	–	–	–	–	–	–	–	increased	increased
